Data reported in ChEMBL document CHEMBL1147904, “Probing length effects and mechanism of cell penetrating agents mounted on a polyproline helix scaffold” (Bioorg Med Chem Lett, 2007).
Non-standard residues stand in square brackets, D forms with d. Residues, ends and D or L forms follow the SMILES beside them. *: point of attachment. X1 = O=C(O)c1cc(C(=O)*)ccc1-c1c2ccc(=O)cc-2oc2cc(O)ccc12; Propyl(3-guanidino) = N=C(N)NCCC*; Hyp = O=C(O)[C@@H]1C[C@@H](O)CN1; Isobutyl = CC(C)C*

Assays:
[1] = Cytotoxicity against MCF7 cells assessed as cell viability at 15 uM after 24 hrs by flow cytometry; assay type: cell-based; conditions: human, read-out: Activity
[2] = tested on: MCF7; experiment: Decrease in cellular uptake in MCF7 cells at 15 uM at 37 degC after 6 hrs; assay type: ADME, cell-based; set-up: scale not given: the % may be the effect or the level left; conditions: human, mcf7, 6 h
[3] = tested on: MCF7; experiment: Cellular uptake in MCF7 cells assessed as mean fluorescence at 5 uM after 6 hrs; assay type: ADME, cell-based; conditions: human, mcf7, 6 h
[4] = tested on: MCF7; experiment: Cellular uptake in MCF7 cells assessed as mean fluorescence at 10 uM after 6 hrs; assay type: ADME, cell-based; conditions: human, mcf7, 6 h
[5] = tested on: MCF7; experiment: Decrease in cellular uptake in MCF7 cells at 15 uM in presence of sodium azideafter 6 hrs by flow cytometry; assay type: ADME, cell-based; set-up: scale not given: the % may be the effect or the level left; conditions: human, mcf7, 6 h
[6] = tested on: MCF7; experiment: Decrease in cellular uptake in MCF7 cells at 15 uM at 4 degC after 6 hrs; assay type: ADME, cell-based; set-up: scale not given: the % may be the effect or the level left; conditions: human, mcf7, 6 h
[7] = tested on: MCF7; experiment: Cellular uptake in MCF7 cells assessed as mean fluorescence at 1 uM after 6 hrs; assay type: ADME, cell-based; conditions: human, mcf7, 6 h
[8] = tested on: MCF7; experiment: Cellular uptake in MCF7 cells assessed as mean fluorescence at 15 uM after 6 hrs; assay type: ADME, cell-based; conditions: human, mcf7, 6 h

| Activity [2] | Activity [3] | Activity [4] | Activity [5] | Activity [6] | Activity [7] | Activity [8] | SMILES | viability at 24 h, 15 µM [1] |
| --- | --- | --- | --- | --- | --- | --- | --- | --- |
| 89% | 7 a.u. | 15 a.u. | Not Active | 82% | 2 a.u. | 63 a.u. | CC(C)CO[C@@H]1C[C@@H](C(=O)N2C[C@H](OCCCNC(=N)N)C[C@H]2C(=O)N2C[C@H](OCCCNC(=N)N)C[C@H]2C(=O)N2C[C@H](OCC(C)C)C[C@H]2C(=O)N2C[C@H](OCCCNC(=N)N)C[C@H]2C(=O)N2C[C@H](OCCCNC(=N)N)C[C@H]2C(=O)N2C[C@H](OCC(C)C)C[C@H]2C(=O)N2C[C@H](OCCCNC(=N)N)C[C@H]2C(=O)N2C[C@H](OCCCNC(=N)N)C[C@H]2C(=O)N2C[C@H](OCC(C)C)C[C@H]2C(N)=O)N(C(=O)CNC(=O)c2ccc(-c3c4ccc(=O)cc-4oc4cc(O)ccc34)c(C(=O)O)c2)C1 (X1-G[Hyp](Isobutyl)[Hyp](Propyl(3-guanidino))[Hyp](Propyl(3-guanidino))[Hyp](Isobutyl)[Hyp](Propyl(3-guanidino))[Hyp](Propyl(3-guanidino))[Hyp](Isobutyl)[Hyp](Propyl(3-guanidino))[Hyp](Propyl(3-guanidino))[Hyp](Isobutyl)-NH2) | 80% |
| 89% | 30 a.u. | 177 a.u. | 19% | 82% | 4 a.u. | 420 a.u. | CC(C)CO[C@@H]1C[C@@H](C(=O)N2C[C@H](OCCCNC(=N)N)C[C@H]2C(=O)N2C[C@H](OCCCNC(=N)N)C[C@H]2C(=O)N2C[C@H](OCC(C)C)C[C@H]2C(=O)N2C[C@H](OCCCNC(=N)N)C[C@H]2C(=O)N2C[C@H](OCCCNC(=N)N)C[C@H]2C(=O)N2C[C@H](OCC(C)C)C[C@H]2C(=O)N2C[C@H](OCCCNC(=N)N)C[C@H]2C(=O)N2C[C@H](OCCCNC(=N)N)C[C@H]2C(=O)N2C[C@H](OCC(C)C)C[C@H]2C(=O)N2C[C@H](OCCCNC(=N)N)C[C@H]2C(=O)N2C[C@H](OCCCNC(=N)N)C[C@H]2C(=O)N2C[C@H](OCC(C)C)C[C@H]2C(N)=O)N(C(=O)CNC(=O)c2ccc(-c3c4ccc(=O)cc-4oc4cc(O)ccc34)c(C(=O)O)c2)C1 (X1-G[Hyp](Isobutyl)[Hyp](Propyl(3-guanidino))[Hyp](Propyl(3-guanidino))[Hyp](Isobutyl)[Hyp](Propyl(3-guanidino))[Hyp](Propyl(3-guanidino))[Hyp](Isobutyl)[Hyp](Propyl(3-guanidino))[Hyp](Propyl(3-guanidino))[Hyp](Isobutyl)[Hyp](Propyl(3-guanidino))[Hyp](Propyl(3-guanidino))[Hyp](Isobutyl)-NH2) | 80% |
